Columns and labels:
[1] = compound: COc1cc2ncnc(Nc3ccc(F)c(Cl)c3)c2cc1OCCCN1CCOCC1 [Gefitinib]; conditions: max 10 µM
How it was run: (§1)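 Following 24 hours at 37°C and 5% CO2, cancer cell lines in 1536-well plates with 7.5 μl DMEM/F12 or RPMI and 10% FBS were dosed for 72 hours, final DMSO typically being 0.2%. CellTiter-Glo 2.0 luminescence, scaled between blank-well and DMSO-well means, gave the viability readout. Dose responses were fitted to a two-parameter logistic curve with a non-linear mixed effects model, and the single-agent IC50 was derived from this fit.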

[2] = compound: CC(=O)c1c(C)c2cnc(Nc3ccc(N4CCNCC4)cn3)nc2n(C2CCCC2)c1=O [Palbociclib]; conditions: max 10 µM
How it was run: as §1

[3] = compound: CC(=O)Nc1cccc(-n2c(=O)n(C3CC3)c(=O)c3c(Nc4ccc(I)cc4F)n(C)c(=O)c(C)c32)c1 [Trametinib]; conditions: max 1 µM
How it was run: as §1

[4] = compound: C=CCn1c(=O)c2cnc(Nc3ccc(N4CCN(C)CC4)cc3)nc2n1-c1cccc(C(C)(C)O)n1 [AZD1775]; conditions: max 3 µM
How it was run: as §1

[5] = compound: C[C@@H](Nc1cc(F)cc(F)c1)c1cc(C(=O)N(C)C)cc2c(=O)cc(N3CCOCC3)oc12 [AZD8186]
How it was run: as §1

[6] = compound: CN(C)CCCOc1ccc(-c2ccc3ncc4c(c3c2)n(C2CCOCC2)c(=O)n4C)cn1 [AZD0156]; conditions: max 3 µM
How it was run: as §1

[7] = compound: CC1(C)CCC(CN2CCN(c3ccc(C(=O)NS(=O)(=O)c4ccc(NCC5CCOCC5)c([N+](=O)[O-])c4)c(Oc4cnc5[nH]ccc5c4)c3)CC2)=C(c2ccc(Cl)cc2)C1 [Venetoclax]; conditions: max 1 µM
How it was run: as §1

[8] = compound: C1CN(CCC1(C(=O)N[C@@H](CCO)C2=CC=C(C=C2)Cl)N)C3=NC=NC4=C3C=CN4 [Capivasertib]; conditions: max 10 µM
How it was run: as §1

[9] = compound: CCN(CCO)CCCOc1ccc2c(Nc3cc(CC(=O)Nc4cccc(F)c4)[nH]n3)ncnc2c1 [AZD2811]; conditions: max 1 µM
How it was run: as §1

[10] = compound: C[C@@H](c1ccc2nccn2c1)n1nnc2ncc(-c3cnn(C)c3)nc21 [Savolitinib]; conditions: max 1 µM
How it was run: as §1

[11] = compound: Cc1cc2ncnn2cc1Nc1ncc2c(n1)n(C1CCOCC1)c(=O)n2C [AZD7648]; conditions: max 10 µM
How it was run: as §1

[12] = compound: CS(=O)(=O)CCNCc1ccc(-c2ccc3ncnc(Nc4ccc(OCc5cccc(F)c5)c(Cl)c4)c3c2)o1 [Lapatinib]; conditions: max 10 µM
How it was run: as §1

[13] = compound: C[C@@H](Oc1cc(-c2cnn(C3CCNCC3)c2)cnc1N)c1c(Cl)ccc(F)c1Cl [Crizotinib]; conditions: max 10 µM
How it was run: as §1

[14] = compound: CCc1c2c(nc3ccc(O)cc13)-c1cc3c(c(=O)n1C2)COC(=O)[C@]3(O)CC [SN-38]; conditions: max 0.3 µM
How it was run: as §1

[15] = compound: Cc1nc(-c2cn3c(n2)-c2ccc(-c4cnn(C(C)(C)C(N)=O)c4)cc2OCC3)n(C(C)C)n1 [Taselisib]; conditions: max 10 µM
How it was run: as §1

[16] = compound: CC1=C(C(=CC=C1)Cl)NC(=O)C2=CN=C(S2)NC3=CC(=NC(=N3)C)N4CCN(CC4)CCO [Dasatinib]; conditions: max 2 µM
How it was run: as §1

[17] = compound: COc1cc(Nc2ncc3c(n2)-c2ccc(Cl)cc2C(c2c(F)cccc2OC)=NC3)ccc1C(=O)O [Alisertib]; conditions: max 10 µM
How it was run: as §1

[18] = compound: COc1cccc(OCCCN)c1-c1cc(Nc2cnc(C#N)cn2)n[nH]1 [Prexasertib]; conditions: max 1 µM
How it was run: as §1

[19] = compound: O=C(c1cc(Cc2n[nH]c(=O)c3ccccc23)ccc1F)N1CCN(C(=O)C2CC2)CC1 [Olaparib]; conditions: max 10 µM
How it was run: as §1

[20] = compound: C[C@@H]1COCCN1C2=NC(=NC(=C2)C3(CC3)[S@](=N)(=O)C)C4=C5C=CNC5=NC=C4 [AZD6738]; conditions: max 10 µM
How it was run: as §1

[21] = compound: CN(CC[C@H](CSC1=CC=CC=C1)NC2=C(C=C(C=C2)S(=O)(=O)NC(=O)C3=CC=C(C=C3)N4CCC(CC4)[C@H](C5=CC=CC=C5C6=CC=C(C=C6)Cl)O)S(=O)(=O)C(F)(F)F)CCO [AZD4320]; conditions: max 1 µM
How it was run: as §1

[22] = compound: CC(C)n1c(=O)n(C)c2cnc3cc(F)c(-c4ccc(OCCCN5CCCCC5)nc4)cc3c21 [AZD1390]; conditions: max 0.3 µM
How it was run: as §1

[23] = compound: Cn1cnc2c(F)c(Nc3ccc(Br)cc3Cl)c(C(=O)NOCCO)cc21 [Selumetinib]; conditions: max 10 µM
How it was run: as §1

[24] = compound: CC1=CN2[C@@H](C1)C=NC3=CC(=C(C=C3C2=O)OC)OCCCCCOC4=C(C=C5C(=C4)N=C[C@@H]6CC(=CN6C5=O)C)OC [SG3199]; conditions: max 0.001 µM
How it was run: as §1

[25] = compound: COc1nnc2ccc(N3CCC(c4ccc(OCCN5CCN(C)C(=O)[C@H]5C)cc4)CC3)nn12 [AZD5153]; conditions: max 1 µM
How it was run: as §1

[26] = compound: COc1cccc2c1C(=O)c1c(O)c3c(c(O)c1C2=O)C[C@@](O)(C(=O)CO)C[C@@H]3O[C@H]1C[C@H](N)[C@H](O)[C@H](C)O1 [Doxorubicin]; conditions: max 1 µM
How it was run: as §1

[27] = compound: Cc1c2c(nn1C)CSCc1cc(n(C)n1)CSc1cc(c3ccccc3c1)OCCCc1c(C(=O)O)n(C)c3c-2c(Cl)ccc13 [AZD5991]; conditions: max 1 µM
How it was run: as §1

[28] = compound: Nc1ccn([C@@H]2O[C@H](CO)[C@@H](O)C2(F)F)c(=O)n1 [Gemcitabine]; conditions: max 0.3 µM
How it was run: as §1

[29] = compound: N#Cc1cnc(Nc2cc(NC[C@H]3CNCCO3)c(C(F)(F)F)cn2)cn1 [SRA737]; conditions: max 10 µM
How it was run: as §1

[30] = compound: NC1(c2ccc(-c3nc4ccn5c(=O)[nH]nc5c4cc3-c3ccccc3)cc2)CCC1 [MK-2206]; conditions: max 10 µM
How it was run: as §1

[31] = compound: O=C(Nc1ccc2[nH]nc(-c3ccncc3)c2c1)[C@@H]1CCN(CC(=O)N2CCN(c3ccc(-c4ncccn4)cc3)CC2)C1; conditions: max 5 µM
How it was run: as §1

[32] = compound: O=c1[nH]cc(F)c(=O)[nH]1 [5-Fluorouracil]; conditions: max 20 µM
How it was run: as §1

[33] = compound: CC(=O)O[C@H]1C(=O)[C@@]2(C)[C@H]([C@H](OC(=O)c3ccccc3)[C@]3(O)C[C@H](OC(=O)[C@H](O)[C@@H](NC(=O)c4ccccc4)c4ccccc4)C(C)=C1C3(C)C)[C@]1(OC(C)=O)CO[C@@H]1C[C@@H]2O [Paclitaxel]; conditions: max 3 µM
How it was run: as §1

[34] = compound: C1CC(C1)(C(=O)[O-])C(=O)[O-].N.N.[Pt+2] [Carboplatin]; conditions: max 10 µM
How it was run: as §1

[35] = compound: C1CN(CCC1(C(=O)N[C@@H](CCO)C2=CC=C(C=C2)Cl)N)C3=NC=NC4=C3C=CN4 [AZD5363]; conditions: max 10 µM
How it was run: as §1

[36] = compound: COc1cc([C@@H]2c3cc4c(cc3[C@@H](O[C@@H]3O[C@@H]5CO[C@@H](C)O[C@H]5[C@H](O)[C@H]3O)[C@H]3COC(=O)[C@H]23)OCO4)cc(OC)c1O [Etoposide]; conditions: max 10 µM
How it was run: as §1

Cell Line	IC50, cell viability 72 h [1] [µM]	IC50, cell viability 72 h [2] [µM]	IC50, cell viability 72 h [3] [µM]	IC50, cell viability 72 h [4] [µM]	IC50, cell viability 72 h ([5]; max 3 µM) [µM]	IC50, cell viability 72 h [6] [µM]	IC50, cell viability 72 h [7] [µM]	IC50, cell viability 72 h [8] [µM]	IC50, cell viability 72 h [9] [µM]	IC50, cell viability 72 h [10] [µM]	IC50, cell viability 72 h [11] [µM]	IC50, cell viability 72 h [12] [µM]	IC50, cell viability 72 h [13] [µM]	IC50, cell viability 72 h [14] [µM]	IC50, cell viability 72 h [15] [µM]	IC50, cell viability 72 h [16] [µM]	IC50, cell viability 72 h [17] [µM]	IC50, cell viability 72 h [18] [µM]	IC50, cell viability 72 h [19] [µM]	IC50, cell viability 72 h [20] [µM]	IC50, cell viability 72 h [21] [µM]	IC50, cell viability 72 h [22] [µM]	IC50, cell viability 72 h [23] [µM]	IC50, cell viability 72 h [24] [µM]	IC50, cell viability 72 h [25] [µM]	IC50, cell viability 72 h [26] [µM]	IC50, cell viability 72 h [27] [µM]	IC50, cell viability 72 h ([5]; max 10 µM) [µM]	IC50, cell viability 72 h [28] [µM]	IC50, cell viability 72 h [29] [µM]	IC50, cell viability 72 h [30] [µM]	IC50, cell viability 72 h [31] [µM]	IC50, cell viability 72 h [32] [µM]	IC50, cell viability 72 h [33] [µM]	IC50, cell viability 72 h [34] [µM]	IC50, cell viability 72 h [35] [µM]	IC50, cell viability 72 h [36] [µM]
SU8686 (Pancreatic Carcinoma)	> 10	> 10	> 1	> 3	> 3	> 3	> 1	> 10	> 1	> 1	> 10	> 10	> 10	> 0.3	> 10	> 2	> 10	0.489	> 10	> 10	> 1	> 0.3	> 10	> 0.001	> 1	> 1	> 1	–	–	–	–	–	–	–	–	–	–
KARPAS-299 (T-Cell Non-Hodgkin's Lymphoma)	> 10	> 10	> 1	0.459	–	> 3	0.708	–	> 1	> 1	> 10	> 10	0.846	0.0357	> 10	> 2	> 10	0.00515	> 10	0.698	> 1	> 0.3	> 10	> 0.001	0.115	0.523	0.326	> 10	0.0266	1.13	> 10	> 5	4.46	0.0306	> 10	> 10	3.37
EW-24 (Ewing's Sarcoma)	> 10	> 10	> 1	> 3	–	> 3	> 1	–	> 1	> 1	> 10	> 10	> 10	0.0129	2.45	> 2	> 10	0.12	> 10	> 10	0.204	> 0.3	> 10	> 0.001	> 1	> 1	> 1	> 10	0.031	8.42	> 10	> 5	> 20	0.255	> 10	> 10	5.33

Reference: the supplement of paper PMC11061612
